Consider 2 molecules from patent US20060140888A1, “Whitening agent containing crystalline molecular complex of hydroquinone and surfactant” (priority 2002, published 2006).

Like-named read-outs stand apart in the source and are kept apart here.

Data set [1] is described as follows: Storage stability (outer appearance change) of ointments containing molecular complex crystals. The format is physicochemical. Conditions: hydrophilic ointment containing 5%, 2 weeks in air at room temperature. From the text:
Storage Sstability (Outer Appearance Change) of Ointments Prepared by Combining Different Surfactant/Hydroquinone Molecular Complex Crystals with Ointment Bases (Simple Ointment, Hydrophilic Ointment)

For data set [2] the following is noted: cited from earlier work.
The test system of another data set is back of a person. Description: Visual observation test for skin reaction (patch test). The format is in vivo, human. As to conditions: for skin reaction (visual): patch test, kneaded with white vaseline. On the procedure: A simple surfactant and surfactant/hydroquinone molecular complex crystals were kneaded with white vaseline, and used for a patch test with a patch tester (Torii Yakuhin) on the back of a person. Skin reactions such as eruption, redness, edema or papules were visually noted 48 hours after applying each patch. Skin reactions were also confirmed after 72 hours. The samples used for the patch test were as follows (where the percentage values indicate the proportions of the surfactant or molecular complex crystals).

In the case of `Oc1ccc(O)cc1` [simple hydroquinone, 1,4-benzenediol], in data set [1], the “outer appearance (coloration) of hydrophilic ointment” value is listed as “Brown spots were confirmed”. In addition, the solubility entry in data set [2] (in benzene) was “poorly soluble”; in data set [2] (in ether) it was “readily soluble”; in data set [2] (in ethyl acetate), “poorly soluble”; in data set [2] (in methanol), “readily soluble”; in data set [2] (in water), “soluble”.
As to `CCCCCCCCCCCCCCCC[N+](C)(C)Cc1ccccc1.[Cl-]` [No. 7, hexadecyldimethylbenzylammonium chloride], the “overall evaluation of patch test” value in the data set with back of a person (after 48 hours) and in the data set with back of a person (after 72 hours) was “negative” each time. The “skin reaction (visual)” value in the data set on back of a person (after 48 hours) is on record as “some redness was found at the center area”; in the data set on back of a person (after 72 hours), “Some redness remained in the center area”.
